Measurements published in patent publication US12077503B2, “Substituted cyclic amides and their use as herbicides” (FMC CORPORATION, priority 2015, dated 2024).

Assays:
Format in all cases: in vivo
Kochia (Kochia scoparia) [1] = test: Test A preemergence; settings: for Kochia plant response rating (0 to 100 scale, 0 is no effect, 100 is complete control): visual injury approx. 10 d
Outline: (§1)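 In a loam soil and sand blend, planted seeds got a preemergence directed soil spray, and young plants at the one- to two-leaf stage, 2–10 cm high, got a postemergence application; ~10 d greenhouse hold; injury rated visually, 0 = none, 100 = complete control.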

[2] = system: pigweed (Amaranthus retroflexus); test: Test A preemergence; settings: for Pigweed plant response rating (0 to 100 scale, 0 is no effect, 100 is complete control): visual injury approx. 10 d
[3] = system: giant foxtail (Setaria faberii); test: Test A preemergence; settings: for Foxtail, Giant plant response rating (0 to 100 scale, 0 is no effect, 100 is complete control): visual injury approx. 10 d
Outline: as §1

[4] = system: barnyardgrass (Echinochloa crus-galli); test: Test A preemergence; settings: for Barnyardgrass plant response rating (0 to 100 scale, 0 is no effect, 100 is complete control): visual injury approx. 10 d
Outline: as §1

[5] = system: ragweed (common ragweed, Ambrosia elatior); test: Test A preemergence; settings: for Ragweed plant response rating (0 to 100 scale, 0 is no effect, 100 is complete control): visual injury approx. 10 d
Outline: as §1

[6] = system: ryegrass, Italian (Italian ryegrass, Lolium multiflorum); test: Test A preemergence; settings: for Ryegrass, Italian plant response rating (0 to 100 scale, 0 is no effect, 100 is complete control): visual injury approx. 10 d
Outline: as §1

[7] = system: wheat (Triticum aestivum); test: Test A postemergence
Outline: as §1

Kochia (Kochia scoparia) [8] = test: Test A postemergence
Outline: as §1

[9] = system: pigweed (Amaranthus retroflexus); test: Test A postemergence
Outline: as §1

[10] = system: giant foxtail (Setaria faberii); test: Test A postemergence
Outline: as §1

[11] = system: barnyardgrass (Echinochloa crus-galli); test: Test A postemergence
Outline: as §1

[12] = system: ragweed (common ragweed, Ambrosia elatior); test: Test A postemergence
Outline: as §1

corn (Zea mays) = test: Test A postemergence
Outline: as §1

[13] = system: Galium (catchweed bedstraw, Galium aparine); test: Test A postemergence
Outline: as §1

[14] = system: blackgrass (Alopecurus myosuroides); test: Test A postemergence
Outline: as §1

[15] = system: ryegrass, Italian (Italian ryegrass, Lolium multiflorum); test: Test A postemergence
Outline: as §1

[16] = system: barnyardgrass (Echinochloa crus-galli); test: Test B flooded paddy test; settings: Flood, 0 to 100 scale where 0 is no effect and 100 is complete control, 13 to 15 d
Outline: (§2)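 Plants at 2-leaf stage flooded to 3 cm above soil, with compounds applied directly to paddy water and that depth maintained. Plants kept in greenhouse 13–15 d. Visual rating versus controls on a 0 (no effect) to 100 (complete control) scale.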

[17] = system: ducksalad (Heteranthera limosa); test: Test B flooded paddy test; settings: Flood, 0 to 100 scale where 0 is no effect and 100 is complete control, 13 to 15 d
Outline: as §2

[18] = system: sedge, umbrella (small-flower umbrella sedge, Cyperus difformis); test: Test B flooded paddy test; settings: Flood, 0 to 100 scale where 0 is no effect and 100 is complete control, 13 to 15 d
Outline: as §2

rice (Oryra sativa) = test: Test B flooded paddy test; settings: Flood, 0 to 100 scale where 0 is no effect and 100 is complete control, 13 to 15 d
Outline: as §2

[19] = 125 g ai/ha, preemergence, visual rating after approx. 10 d, 0 to 100 scale where 0 is no effect and 100 is complete control
[20] = 500 g ai/ha, preemergence, 0 to 100 scale, 0 = no effect, 100 = complete control
[21] = 125 g ai/ha, postemergence, visual injury after approximately 10 d, 0 to 100 scale (0 no effect, 100 complete control)
[22] = 500 g ai/ha, postemergence, visual injury, 0 to 100 scale (0 no effect, 100 complete control), approx. 10 d
[23] = 125 g ai/ha, Preemergence, visual injury after approximately 10 d, 0 to 100 scale where 0 is no effect and 100 is complete control
[24] = 125 g ai/ha, postemergence, visual injury rating on 0 to 100 scale (0 no effect, 100 complete control), approx. 10 d
[25] = Postemergence, 500 g ai/ha, 0 to 100 scale where 0 is no effect and 100 is complete control
[26] = 125 g ai/ha, postemergence, visual rating after approx. 10 d, 0 to 100 scale (0 no effect, 100 complete control)

SMILES: O=C1NCC(c2ccc(I)cc2)C1C(=O)Nc1ccc(F)cc1F (racemic) [Compound 701]
- Plant response rating, Kochia (Kochia (Kochia scoparia) [1]; [19]): 0
- Plant response rating, Kochia (Kochia (Kochia scoparia) [1]; [20]): 0
- Plant response rating, Pigweed [2, 19]: 0
- Plant response rating, Pigweed [2, 20]: 0
- Plant response rating, Foxtail, Giant [3, 19]: 90
- Plant response rating, Foxtail, Giant [3, 20]: 90
- Plant response rating, Barnyardgrass [4, 19]: 60
- Plant response rating, Barnyardgrass [4, 20]: 90
- Plant response rating, Ragweed [5, 19]: 0
- Plant response rating, Ragweed [5, 20]: 0
- Plant response rating, Ryegrass, Italian [6, 19]: 0
- Plant response rating, Ryegrass, Italian [6, 20]: 0
- Plant response rating, Wheat [7, 21]: 0
- Plant response rating, Wheat [7, 22]: 0
- Plant response rating, Kochia (Kochia (Kochia scoparia) [8]; [21]): 0
- Plant response rating, Kochia (Kochia (Kochia scoparia) [8]; [22]): 0
- Plant response rating, Pigweed [9, 21]: 0
- Plant response rating, Pigweed [9, 22]: 0
- Plant response rating, Foxtail, Giant [10, 21]: 60
- Plant response rating, Foxtail, Giant [10, 22]: 70
- Plant response rating, Barnyardgrass [11, 21]: 60
- Plant response rating, Barnyardgrass [11, 22]: 70
- Plant response rating, Ragweed [12, 21]: 0
- Plant response rating, Ragweed [12, 22]: 0
- Plant response rating, Corn (corn (Zea mays); [21]): 0
- Plant response rating, Corn (corn (Zea mays); [22]): 0
- Plant response rating, Galium [13, 21]: 0
- Plant response rating, Galium [13, 22]: 0
- Plant response rating, Blackgrass [14, 21]: 0
- Plant response rating, Blackgrass [14, 22]: 0
- Plant response rating, Ryegrass, Italian [15, 21]: 0
- Plant response rating, Ryegrass, Italian [15, 22]: 0
- Plant response rating, Barnyardgrass ([16]; 500 g ai/ha): 65
- Plant response rating, Ducksalad ([17]; 500 g ai/ha): 100
- Plant response rating, Sedge, Umbrella ([18]; 500 g ai/ha): 0
- Plant response rating, Rice (rice (Oryra sativa); 500 g ai/ha): 0

SMILES: O=C1NCC(c2ccnc(C(F)(F)F)c2)C1C(=O)Nc1cccc(F)c1F (racemic) [Compound 514]
- Plant response rating, Kochia (Kochia (Kochia scoparia) [1]; [23]): 0
- Kochia plant response rating (0 to 100 scale, 0 is no effect, 100 is complete control) (Kochia (Kochia scoparia) [1]; Preemergence, 500 g ai/ha): 50
- Plant response rating, Pigweed [2, 23]: 0
- Pigweed plant response rating (0 to 100 scale, 0 is no effect, 100 is complete control) ([2]; Preemergence, 500 g ai/ha): 40
- Plant response rating, Foxtail, Giant [3, 23]: 90
- Foxtail, Giant plant response rating (0 to 100 scale, 0 is no effect, 100 is complete control) ([3]; Preemergence, 500 g ai/ha): 90
- Plant response rating, Barnyardgrass [4, 23]: 90
- Barnyardgrass plant response rating (0 to 100 scale, 0 is no effect, 100 is complete control) ([4]; Preemergence, 500 g ai/ha): 90
- Plant response rating, Ragweed [5, 23]: 0
- Ragweed plant response rating (0 to 100 scale, 0 is no effect, 100 is complete control) ([5]; Preemergence, 500 g ai/ha): 30
- Plant response rating, Ryegrass, Italian [6, 23]: 20
- Ryegrass, Italian plant response rating (0 to 100 scale, 0 is no effect, 100 is complete control) ([6]; Preemergence, 500 g ai/ha): 60
- Wheat plant response rating [7, 24]: 30
- Plant response rating, Wheat [7, 25]: 40
- Kochia plant response rating (Kochia (Kochia scoparia) [8]; [24]): 30
- Plant response rating, Kochia (Kochia (Kochia scoparia) [8]; [25]): 50
- Pigweed plant response rating [9, 24]: 0
- Plant response rating, Pigweed [9, 25]: 30
- Foxtail, Giant plant response rating [10, 24]: 70
- Plant response rating, Foxtail, Giant [10, 25]: 90
- Barnyardgrass plant response rating [11, 24]: 80
- Plant response rating, Barnyardgrass [11, 25]: 90
- Ragweed plant response rating [12, 24]: 0
- Plant response rating, Ragweed [12, 25]: 20
- Corn plant response rating (corn (Zea mays); [24]): 30
- Plant response rating, Corn (corn (Zea mays); [25]): 80
- Galium plant response rating [13, 24]: 40
- Plant response rating, Galium [13, 25]: 50
- Blackgrass plant response rating [14, 24]: 20
- Plant response rating, Blackgrass [14, 25]: 50
- Ryegrass, Italian plant response rating [15, 24]: 20
- Plant response rating, Ryegrass, Italian [15, 25]: 40
- Plant response rating, Barnyardgrass ([16]; 250 g ai/ha): 50
- Plant response rating, Ducksalad ([17]; 250 g ai/ha): 100
- Plant response rating, Sedge, Umbrella ([18]; 250 g ai/ha): 0
- Plant response rating, Rice (rice (Oryra sativa); 250 g ai/ha): 20

SMILES: CN1CC(c2c(F)cccc2F)C(C(=O)Nc2cccc(F)c2F)C1=O (stereo not drawn) [Compound 547]
- Plant response rating, Kochia (Kochia (Kochia scoparia) [1]; [23]): 0
- Kochia plant response rating (0 to 100 scale, 0 is no effect, 100 is complete control) (Kochia (Kochia scoparia) [1]; Preemergence, 500 g ai/ha): 0
- Plant response rating, Pigweed [2, 23]: 0
- Pigweed plant response rating (0 to 100 scale, 0 is no effect, 100 is complete control) ([2]; Preemergence, 500 g ai/ha): 0
- Plant response rating, Foxtail, Giant [3, 23]: 90
- Foxtail, Giant plant response rating (0 to 100 scale, 0 is no effect, 100 is complete control) ([3]; Preemergence, 500 g ai/ha): 90
- Plant response rating, Barnyardgrass [4, 23]: 90
- Barnyardgrass plant response rating (0 to 100 scale, 0 is no effect, 100 is complete control) ([4]; Preemergence, 500 g ai/ha): 90
- Plant response rating, Ragweed [5, 23]: 0
- Ragweed plant response rating (0 to 100 scale, 0 is no effect, 100 is complete control) ([5]; Preemergence, 500 g ai/ha): 70
- Plant response rating, Ryegrass, Italian [6, 23]: 0
- Ryegrass, Italian plant response rating (0 to 100 scale, 0 is no effect, 100 is complete control) ([6]; Preemergence, 500 g ai/ha): 0
- Plant response rating, Wheat [7, 26]: 0
- Plant response rating, Wheat [7, 25]: 0
- Plant response rating, Kochia (Kochia (Kochia scoparia) [8]; [26]): 0
- Plant response rating, Kochia (Kochia (Kochia scoparia) [8]; [25]): 50
- Plant response rating, Pigweed [9, 26]: 0
- Plant response rating, Pigweed [9, 25]: 0
- Plant response rating, Foxtail, Giant [10, 26]: 80
- Plant response rating, Foxtail, Giant [10, 25]: 90
- Plant response rating, Barnyardgrass [11, 26]: 70
- Plant response rating, Barnyardgrass [11, 25]: 90
- Plant response rating, Ragweed [12, 26]: 0
- Plant response rating, Ragweed [12, 25]: 30
- Plant response rating, Corn (corn (Zea mays); [26]): 0
- Plant response rating, Corn (corn (Zea mays); [25]): 0
- Plant response rating, Galium [13, 26]: 0
- Plant response rating, Galium [13, 25]: 20
- Plant response rating, Blackgrass [14, 26]: 0
- Plant response rating, Blackgrass [14, 25]: 0
- Plant response rating, Ryegrass, Italian [15, 26]: 0
- Plant response rating, Ryegrass, Italian [15, 25]: 0
- Plant response rating, Barnyardgrass ([16]; 250 g ai/ha): 0
- Plant response rating, Ducksalad ([17]; 250 g ai/ha): 0
- Plant response rating, Sedge, Umbrella ([18]; 250 g ai/ha): 0
- Plant response rating, Rice (rice (Oryra sativa); 250 g ai/ha): 0
